Experimental data taken from patent US12479974B2, “Composition and method for microbial control for use with polymers” (MICROBAN PRODUCTS COMPANY, priority 2022, dated 2025).
Converted amounts (≈) assume the structure as drawn.

Key:
[1] = system: Escherichia coli; assay: Minimum inhibitory concentration (MIC); type: cell-based; conditions: against Escherichia coli
[2] = system: Staphylococcus aureus; assay: Minimum inhibitory concentration (MIC); type: cell-based; conditions: against Staphylococcus aureus
[3] = system: Escherichia coli (gram-negative bacteria); assay: Antimicrobial efficacy of polymer samples, ISO22196 test method
[4] = system: Staphylococcus aureus (gram-positive bacteria); assay: as above; conditions: GBA alone at more than 4500 ppm in TPU, Table 3 (S. aureus)

MIC [1] [µg/mL]	MIC [2] [µg/mL]	Structure (SMILES)	efficacy against E. coli ([3]; 2500 ppm GBA in TPU)	log reduction ([3]; 4500 ppm GBA alone in TPU, E. coli)	log reduction (consistent antimicrobial efficacy) ([3]; 5250 ppm level in TPU, E. coli)	antimicrobial efficacy [4]
3000 to 4000 (≈ 22 to 29.4 mM)	4000 (≈ 29.4 mM)	OCCCc1ccccc1 [3-phenylpropanol]				
		O=C(O)c1ccccc1 [GBA, benzoic acid]	no efficacy	less than 1	> 1	did not exhibit antimicrobial efficacy
